Measurements: EP2386565A2, “Compounds and methods to inhibit or augment an inflammatory response” (Cambridge Enterprise Ltd., priority 1999, dated 2000)
Positions of bridges follow the written chain, without caps; N, C: chain ends. Non-standard residues stand in square brackets, D forms with d. Residues, ends and D or L forms follow the SMILES beside them.

Tests used:
α2-adrenoceptors = assay: Competition of 3H-RS-79948-197 binding to membranes; details: 100 µM highest concentration tested
Experimental: For α2-adrenoreceptor binding, membranes (A-213, RBI/Sigma)) are diluted into binding buffer (75 mM Tris pH 7.4, 12.5 mM MgCl2 and 2 mM EDTA). For example, 10 µl of membranes are diluted in 500 µl of binding buffer (i.e., 1:50 dilution), which is aliquoted into tubes. Cold competitor or test competitor is added, for example, 5 µl of 1 mM oxymetazoline (O-110, RBI/Sigma, 1 mM stock in MilliQ water). Radioligand is then added (^3H-RS-79948-197, TRK 1036, Amersham, 50 µCi in 250 µl, 2.1 µM at 95 Ci/mmol). For competition studies, 1 nM is used. A 100x stock (i.e., 100 nM) is made by diluting the commercial stock 1:20 in binding buffer, and 5 µl is added to every tube. Control tubes have radioligand but no membranes. The mixtures are vortexed, then spun very briefly. The mixtures are then incubated for 1 hour at 27°C in a water bath. The mixture is filtered through GF/C filters over a vacuum. Each filter is pre-soaked in polyethyleneimine (0.3% in water; add 1 ml of 10% stock (P-261; RBI/Sigma) to 33 ml of MilliQ water). The tubes are washed with 2-3 ml of wash buffer (50 mM Tris pH 7.4) and the wash filtered. The filters are then rinsed with 3 × 5 ml of wash buffer, air dried, placed in a scintillation vial and 4.5 ml of scintillant added. The activity on the filter is then determined.

[1] = Serum half-life of glucose conjugate after s.c. injection; format: in vivo, rats; details: unmodified peptide, comparison value
Experimental: To determine whether sugar conjugates of an agent of the invention had increased plasma half-lives, a glucose conjugate of CRD-Leu4Ile11Cys13 peptide 3(3-12)[MCP-1] was prepared and administered to rats. The conjugate was synthesized by mixing D-glucose (50 mM) and CRD-Leu4Ile11Cys13 peptide 3(3-12)[MCP-1] (1 mM) in phosphate buffered saline and incubating at room temperature for 16 hours. The reaction mixture was then subject to analytical HPLC which indicated a yield of about 30%. The material was then treated with cyanoborohydride to effect reduction of the schiffs base linkage and stabilize the glucosides for purification. The stabilized glucosides were then subjected to preparative HPLC and the mono- and di-substituted glucosides prepared separately. The monoglucoside was obtained at >90% purity in approximately 10% yield, and it is likely that the material is a mixture of Lys5-glucoside and Lys-7 glucoside.
The CRD-Leu4Ile11Cys13 peptide 3(3-12)[MCP-1] monoglucoside was injected into 3 rats (5 mg per rat via s.c. route in sterile PBS). Blood samples were withdrawn through an i.v. cannula at various time points, and CRD-Leu4Ile11Cys13 peptide 3(3-12)[MCP-1] glucoside was quantitated in the serum.

Modified LD50 technique = format: in vivo, mouse; details: 11 mg i.p.
[2] = system: TGFβ1 induced THP-1 migration; assay: THP-1 trans-well migration assay, TGFβ1 as non-chemokine control chemoattractant; format: cell-based, human; details: for % inhibition at 100 µM versus TGFβ1: THP-1 migration, agent at 100 µM, n.s. = no statistically significant inhibition
Experimental: Any method suitable for counting cells can be used, for example, counting with a hemocytometer, incubation of the cells with MTT (see above), or FACS analysis. A negative control assay is also performed, using TGF-β or another non-chemokine chemoattractant (e.g., IL1β or TNFα). To assess whether the agent is cytotoxic, the same concentrations of agent are incubated with THP-1 cells. Agents which 1) are not cytotoxic at levels which inhibit migration, 2) are ineffective at inhibiting the negative control-induced migration, and 3) reduce or inhibit chemokine-induced THP-1 migration, are agents which fall within the scope of the invention.
For this assay, THP-1 cells were maintained at a density of 4 × 10^5 cells per ml in RPMI-1640 supplemented with 10% fetal calf serum + 20 µM 2-mercaptoethanol. Chemotaxis was induced in a 96-well disposable chemotaxis chamber fitted with a 5 µM polycarbonate filter (PVP free, ChemoTX, Neuroprobe Inc., Cabin John). Twenty-nine µl of chemoattractant (recombinant human chemokine; 50 ng/ml, i.e., 5.9 nM) or control (100 ng/ml TGFβ) was added to the lower compartment of each well. The framed filter was aligned with the holes in the corner of the filter frame and placed over the wells.
Five × 10^4 THP-1 cells in 25 µl of RPMI-1640 were added to the upper compartment. Peptides were dissolved in Milli Q water and then serially diluted in culture medium. […]
After incubation, the cells were gently removed from the top of the filter with a pipette, 20 µl of 20 mM EDTA in PBS was added into each top well, and the mixture was incubated for 20 minutes at 4°C. […] A standard curve was prepared to accurately quantify the number of THP-1 cells that had migrated. […] Absorbance of converted dye was measured at a wavelength of 595 nm using an ELISA plate reader. The number of cells that had migrated in each well was determined by interpolation of the standard curve.
To investigate the receptor specificity of peptide 3 inhibition, the ED50 was determined for peptide 3(1-12)[MCP-1] […]

| SMILES | ED50 for competition of RS79943 binding to α2-adrenoceptors (α2-adrenoceptors) | T1/2α [1] | lethality after intraperitoneal administration (in words) (Modified LD50 technique) | % inhibition at 100 µM versus TGFβ1 [2] | % inhibition at 100 µM versus TGFβ1 ([2]; listed as peptide 1[MCP-1]) | ED50 (µM) versus TGFβ1 ([2]; inhibition of THP-1 migration, n.s. = not statistically significant) |
| --- | --- | --- | --- | --- | --- | --- |
| CC[C@@H](C)[C@H]1NC(=O)[C@@H](CCC(N)=O)NC(=O)[C@H](N)CSSC[C@H](C(N)=O)NC(=O)[C@@H](CC(C)C)NC(=O)[C@@H](CC(=O)O)NC(=O)[C@H]2CCCN2C(=O)[C@@H](CCCCN)NC(=O)[C@@H](CCC(N)=O)NC(=O)[C@@H](CCCCN)NC(=O)[C@@H](Cc2c[nH]c3ccccc23)NC1=O (H-[dC][dQ][dI][dW][dK][dQ][dK][dP][dD][dL][dC]-NH2; disulfide 1-11) | >100 µM | 15 min | did not result in lethality | – | – | – |
| CC[C@H](C)[C@H](NC(=O)[C@H](C)NC(=O)[C@H](CC(=O)O)NC(=O)[C@@H]1CCCN1C(=O)[C@H](CCC(N)=O)NC(=O)[C@H](C)N)C(=O)N[C@@H](CC(N)=O)C(=O)N[C@@H](C)C(=O)N1CCC[C@H]1C(=O)N[C@H](C(=O)N[C@H](C(=O)N[C@@H](CS)C(=O)N[C@@H](CS)C(=O)O)[C@@H](C)O)C(C)C [Peptide 1] (H-AQPDAINAPVTCC-OH; N-terminus and C-terminus assumed) | – | – | – | n.s. | did not significantly inhibit | n.s. |
